{
  "source": "paper PMC7155212",
  "about": "(Journal of Enzyme Inhibition and Medicinal Chemistry, 2020)",
  "key": {"[1]": {"assay": "In vitro antioxidant activity (DPPH radical scavenging)", "conditions": "DPPH free radical scavenging, 30 min at 37 °C, mean ± SD (n = 3)", "procedure": "The assay provides an assessment of the antioxidant activity due to free radical scavenging by measuring hydrogen atom (or one electron) donating activity. DPPH is a purple stable free radical that is reduced to a yellow-coloured diphenylpicryl hydrazine by an antioxidant. The spectrophotometric assay was carried out as described by the literature method with a slight modification. 100 μL of a sample solution was added to 100 μL of DPPH solution. Following 30 min of incubation at 37 °C and protection from light, the absorbance at 517 nm was determined using a microplate reader. Each group was measured three times in parallel to average. IC50 values were calculated. The percentage of DPPH radical scavenging rate of the target compound is calculated as follows: DPPH free radical scavenging effect (%)=[A0 – (A1−A2)]/A0×100% where A0 is the absorbance of blank group; A1 is the absorbance of sample group; A2 is the absorbance of sample blank group."}, "AChE from electric eel": {"biological_target": "AChE from electric eel (Electrophorus electricus, UniProt O42275)", "sequence (O42275 24-633)": "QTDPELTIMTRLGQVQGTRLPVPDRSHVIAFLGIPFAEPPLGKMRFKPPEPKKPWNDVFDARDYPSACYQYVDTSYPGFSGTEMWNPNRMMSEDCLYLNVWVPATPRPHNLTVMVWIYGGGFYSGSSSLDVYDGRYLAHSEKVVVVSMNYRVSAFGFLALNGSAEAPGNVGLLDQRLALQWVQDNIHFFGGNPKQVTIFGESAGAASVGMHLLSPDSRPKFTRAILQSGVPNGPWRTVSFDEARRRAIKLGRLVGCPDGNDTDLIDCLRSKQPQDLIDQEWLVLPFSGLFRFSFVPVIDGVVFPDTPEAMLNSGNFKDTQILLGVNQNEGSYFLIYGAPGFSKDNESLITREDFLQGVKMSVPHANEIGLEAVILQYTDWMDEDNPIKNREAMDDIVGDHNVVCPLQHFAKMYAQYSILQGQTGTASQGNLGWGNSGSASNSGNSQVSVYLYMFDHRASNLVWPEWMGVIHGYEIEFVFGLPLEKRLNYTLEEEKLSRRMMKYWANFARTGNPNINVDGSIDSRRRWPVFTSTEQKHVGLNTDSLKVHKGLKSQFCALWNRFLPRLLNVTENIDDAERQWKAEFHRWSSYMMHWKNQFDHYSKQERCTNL", "assay": "biochemical", "format": "biochemical", "conditions": "Ellman method, mean ± SD (n = 3)", "procedure": "(§1) The anticholinesterase activity of the 3-arylbenzofuranone compounds was determined by the method of Ellman et al.[16] with slight modifications. […] Acetylthiocholine iodide and butyrylthiocholine iodide were used as substrates respectively. 5,5′-Dithiobis(2-nitrobenzoic acid) (DTNB) was used as the chromophoric reagent. To a 96-well plate, 120 µL of phosphate buffer solution (0.1 M, pH = 8.0, PBS), 20 µL of DTNB (3.3 mM in 0.1 M PBS, pH = 8.0) were added sequentially, 20 µL AChE solution (0.2 U/mL in 0.1 M PBS, pH = 8.0), 20 µL of different concentrations of the sample solution, shaken well, and incubated at 37 °C for 5 min. Then, 20 µL of substrate (5 mM in 0.1 M PBS, pH = 8.0) were added, shaken well, and incubated at 37 °C for 20 min. […] BChE inhibitory activity was assessed similarly using butyrylthiocholine iodide as the substrate. The sample solution was set to five concentration gradients and the experiment was repeated three times. […] Cholinesterase inhibitory effect (%)=[A0−(A1−A2)]/A0×100% where A0 is the absorbance of blank group; A1 is the absorbance of sample group; A2 is the absorbance of sample blank group."}, "BChE from equine serum": {"biological_target": "BChE from equine serum (Equus caballus, UniProt P81908)", "sequence (P81908 whole entry)": "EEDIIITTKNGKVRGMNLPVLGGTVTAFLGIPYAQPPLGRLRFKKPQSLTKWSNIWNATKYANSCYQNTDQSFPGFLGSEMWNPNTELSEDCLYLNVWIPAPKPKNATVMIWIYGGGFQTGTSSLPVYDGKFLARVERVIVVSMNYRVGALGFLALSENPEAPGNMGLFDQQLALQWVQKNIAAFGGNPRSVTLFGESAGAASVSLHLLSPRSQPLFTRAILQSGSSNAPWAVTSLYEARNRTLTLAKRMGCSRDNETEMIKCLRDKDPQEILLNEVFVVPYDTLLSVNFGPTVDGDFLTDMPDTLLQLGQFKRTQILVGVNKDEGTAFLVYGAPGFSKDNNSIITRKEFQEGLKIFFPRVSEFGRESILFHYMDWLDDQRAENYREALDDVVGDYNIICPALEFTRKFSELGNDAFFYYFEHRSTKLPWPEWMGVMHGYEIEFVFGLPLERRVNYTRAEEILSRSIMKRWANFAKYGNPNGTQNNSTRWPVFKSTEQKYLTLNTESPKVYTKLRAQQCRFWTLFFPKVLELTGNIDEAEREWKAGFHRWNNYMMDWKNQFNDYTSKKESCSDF", "assay": "biochemical", "format": "biochemical", "procedure": "as §1"}, "MAO-B": {"biological_target": "T1, MAO-B (Rattus norvegicus, UniProt P19643)", "T1 construct": "The crude enzyme was extracted from the liver of 200–250 g of Wistar rats; from tissue; host or cells: liver of Wistar rats (crude enzyme)", "T1 sequence (P19643 1-520)": "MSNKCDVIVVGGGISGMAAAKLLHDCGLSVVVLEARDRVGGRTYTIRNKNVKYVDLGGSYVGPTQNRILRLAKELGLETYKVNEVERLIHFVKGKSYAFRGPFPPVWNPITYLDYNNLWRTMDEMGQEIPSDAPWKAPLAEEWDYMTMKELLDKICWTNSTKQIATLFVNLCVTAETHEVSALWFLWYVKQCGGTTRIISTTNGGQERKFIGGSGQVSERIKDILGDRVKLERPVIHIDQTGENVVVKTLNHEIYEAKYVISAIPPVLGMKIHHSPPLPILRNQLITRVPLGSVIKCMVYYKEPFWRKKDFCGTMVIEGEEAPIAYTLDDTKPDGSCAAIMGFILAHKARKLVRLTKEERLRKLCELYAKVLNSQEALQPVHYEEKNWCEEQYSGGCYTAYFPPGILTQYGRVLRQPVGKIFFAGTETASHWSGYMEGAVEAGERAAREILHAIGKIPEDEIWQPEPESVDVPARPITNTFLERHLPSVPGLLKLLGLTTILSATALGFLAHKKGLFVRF", "assay": "In vitro MAO inhibitory activity (Holt method, crude enzyme from rat liver)", "format": "biochemical, Wistar rat", "procedure": "The MAO inhibitory activity of the 3-arylbenzofuranone compounds was determined by the method of Holt et al.[17] with slight modifications. The crude enzyme was extracted from the liver of 200–250 g of Wistar rats according to literature methods[18]^,[19]. The crude enzyme protein content was determined by the Bradford method using a Bradford Protein Assay Kit (Beyotime). The assay was performed in 0.2 M potassium phosphate buffer pH 7.6 on 96-well plates in 240 μl total volume. The chromogenic solution containing 1 mM vanillic acid, 0.5 mM 4-aminoantipyrine, and 4 U/ml horseradish peroxidase in 0.2 M potassium phosphate buffer pH 7.6 was mixed anew for each measurement. 40 μL of enzyme solution and 40 μL of sample solution were added to a 96-well plate. The solution was then incubated at 37 °C for 20 min. 120 μL of the 4-(trifluoromethyl) benzylamine solution and 40 μL of the chromogenic solution were added subsequently and incubated at 37 °C for 90 min. The absorbance was measured at 490 nm using a microplate reader, and the inhibition rate of MAO and the IC50 value of each sample were calculated according to the formula. The control group replaced the sample solution with PBS (0.2 M, pH = 7.6), the positive control replaced the sample with the positive drug, and the blank group replaced the substrate with PBS, and each group was measured three times in parallel to average. Monoamine oxidase inhibitory effect (%) = [(AC – AB) – (AS – ASB )]/(AC – AB)×100% where AC is the absorbance of control group; AB is the absorbance of blank group; AS is the absorbance of sample group; ASB is the absorbance of sample blank group."}, "[2]": {"conditions": "read-out: IC50 value AChE inhibitory activity"}, "[3]": {"conditions": "equine serum BChE, Ellman method, mean ± SD (n = 3), read-out: IC50 value BuChE inhibitory activity"}, "[4]": {"conditions": "rat liver crude enzyme, 4-(trifluoromethyl)benzylamine substrate, mean ± SD (n = 3), read-out: IC50 value MAO-B inhibitory activity"}},
  "note": "“And” between values parts separate entries of the source, which are not always exact repeats. Identical values can stand only once. Like-named read-outs stand apart in the source and are kept apart here.",
  "data": [
    {"smiles": "O=C1O[C@H]([C@@H](O)CO)C(O)=C1O", "note": "[Ascorbic acid, reference compound]", "values": [
      {"measurement": "IC50", "setting": "[1]", "value": "7.69 ± 0.1", "unit": "µM"}
    ]},
    {"smiles": "COc1ccc(C2C(=O)Oc3cc(O)ccc32)cc1", "note": "(centres unmarked) [Compound 1, 6-Hydroxyl-3–(4′-methoxyphenyl)-benzofuranone]", "values": [
      {"measurement": "IC50", "setting": "AChE from electric eel; [2]", "value": "50.6 ± 3.12", "unit": "µM"},
      {"measurement": "IC50", "setting": "BChE from equine serum; [3]", "value": "> 200", "unit": "µM"},
      {"measurement": "IC50", "setting": "MAO-B; [4]", "value": "61.3 ± 0.79", "unit": "µM"},
      {"measurement": "IC50", "setting": "[1]", "value": "13.3 ± 0.27", "unit": "µM"}
    ]},
    {"smiles": "COc1ccc(C2C(=O)Oc3ccc(O)cc32)cc1", "note": "(centres unmarked) [Compound 2, 5-Hydroxyl-3–(4′-methoxyphenyl)-benzofuranone]", "values": [
      {"measurement": "IC50", "setting": "AChE from electric eel; [2]", "value": "4.15 ± 1.02", "unit": "µM"},
      {"measurement": "IC50", "setting": "MAO-B; [4]", "value": "14.7 ± 0.78", "unit": "µM"},
      {"measurement": "IC50", "setting": "[1]", "value": "> 100", "unit": "µM"}
    ]},
    {"smiles": "COc1ccc(C2C(=O)Oc3cc(OC)ccc32)cc1", "note": "(centres unmarked) [Compound 3, 6-Methoxy-3–(4′-methoxyphenyl)-benzofuranone]", "values": [
      {"measurement": "IC50", "setting": "AChE from electric eel; [2]", "value": "80.5 ± 3.41", "unit": "µM"},
      {"measurement": "IC50", "setting": "BChE from equine serum; [3]", "value": "> 200", "unit": "µM"},
      {"measurement": "IC50", "setting": "MAO-B; [4]", "value": "298 ± 5.4", "unit": "µM"},
      {"measurement": "IC50", "setting": "[1]", "value": "11.8 ± 0.18", "unit": "µM"}
    ]},
    {"smiles": "COc1ccc(C2C(=O)Oc3ccc(OC)cc32)cc1", "note": "(centres unmarked) [Compound 4, 5-Methoxy-3–(4′-methoxyphenyl)-benzofuranone]", "values": [
      {"measurement": "IC50", "setting": "AChE from electric eel; [2]", "value": "< 1 µM and 0.74 µM"},
      {"measurement": "IC50", "setting": "BChE from equine serum; [3]", "value": "> 200", "unit": "µM"},
      {"measurement": "IC50", "setting": "MAO-B; [4]", "value": "383 ± 5.08", "unit": "µM"},
      {"measurement": "IC50", "setting": "[1]", "value": "33.1 ± 1.45", "unit": "µM"}
    ]},
    {"smiles": "COc1ccc(C2C(=O)Oc3c2ccc(O)c3O)cc1", "note": "(centres unmarked) [Compound 5, 6,7-Dihydroxy-3–(4′-methoxyphenyl)-benzofuranone]", "values": [
      {"measurement": "IC50", "setting": "BChE from equine serum; [3]", "value": "> 200", "unit": "µM"},
      {"measurement": "IC50", "setting": "MAO-B; [4]", "value": "22.48 ± 0.22", "unit": "µM"},
      {"measurement": "IC50", "setting": "[1]", "value": "5.51 ± 0.2", "unit": "µM"}
    ]},
    {"smiles": "COc1ccc(C2C(=O)Oc3cc(O)ccc32)cc1OC", "note": "(centres unmarked) [Compound 6, 6-Hydroxy-3–(3′,4′-dimethoxyphenyl)-benzofuranone]", "values": [
      {"measurement": "IC50", "setting": "AChE from electric eel; [2]", "value": "24.4 ± 1.21", "unit": "µM"},
      {"measurement": "IC50", "setting": "BChE from equine serum; [3]", "value": "> 200", "unit": "µM"},
      {"measurement": "IC50", "setting": "MAO-B; [4]", "value": "48.6 ± 2.02", "unit": "µM"}
    ]},
    {"smiles": "COc1ccc(C2C(=O)Oc3cc(OC)c(O)cc32)cc1", "note": "(centres unmarked) [Compound 7, 5-Hydroxy-6-methoxy-3–(4′-methoxyphenyl)-benzofuranone]", "values": [
      {"measurement": "IC50", "setting": "AChE from electric eel; [2]", "value": "< 1 µM and 0.52 µM"},
      {"measurement": "IC50", "setting": "BChE from equine serum; [3]", "value": "32.9 ± 0.76", "unit": "µM"},
      {"measurement": "IC50", "setting": "MAO-B; [4]", "value": "91.13 ± 0.7", "unit": "µM"},
      {"measurement": "IC50", "setting": "[1]", "value": "2.62 ± 0.21", "unit": "µM"}
    ]},
    {"smiles": "COc1ccc(C2C(=O)Oc3c2ccc(OC)c3O)cc1", "note": "(centres unmarked) [Compound 8, 6-Methoxy-7-hydroxy-3–(4′-methoxyphenyl)-benzofuranone]", "values": [
      {"measurement": "IC50", "setting": "AChE from electric eel; [2]", "value": "9.24 ± 0.62", "unit": "µM"},
      {"measurement": "IC50", "setting": "BChE from equine serum; [3]", "value": "> 200", "unit": "µM"},
      {"measurement": "IC50", "setting": "MAO-B; [4]", "value": "40.6 ± 1.92", "unit": "µM"},
      {"measurement": "IC50", "setting": "[1]", "value": "5.96 ± 0.14", "unit": "µM"}
    ]},
    {"smiles": "COc1ccc2c(c1)OC(=O)C2c1ccc(OC)c(OC)c1", "note": "(centres unmarked) [Compound 9, 6-Methoxy-3–(3′,4′-dimethoxyphenyl)-benzofuranone]", "values": [
      {"measurement": "IC50", "setting": "AChE from electric eel; IC50 value AChE inhibitory activity", "value": "0.35 ± 0.03", "unit": "µM"},
      {"measurement": "IC50", "setting": "BChE from equine serum", "value": "> 200", "unit": "µM"},
      {"measurement": "IC50", "setting": "MAO-B", "value": "354 ± 5.05", "unit": "µM"},
      {"measurement": "IC50", "setting": "[1]", "value": "17.2 ± 0.58", "unit": "µM"}
    ]},
    {"smiles": "COc1ccc(C2C(=O)Oc3cc(OC)c(OC)cc32)cc1", "note": "(centres unmarked) [Compound 10, 5,6-Dimethoxy-3–(4′-methoxyphenyl)-benzofuranone]", "values": [
      {"measurement": "IC50", "setting": "AChE from electric eel; [2]", "value": "28.7 ± 1.44", "unit": "µM"},
      {"measurement": "IC50", "setting": "BChE from equine serum; [3]", "value": "> 200", "unit": "µM"},
      {"measurement": "IC50", "setting": "MAO-B; [4]", "value": "493 ± 7.1", "unit": "µM"},
      {"measurement": "IC50", "setting": "[1]", "value": "13.89 ± 0.11", "unit": "µM"}
    ]}
  ]
}
